Reference: patent US4564619A, “Carbostyril derivative” (Otsuka Pharmaceutical Co., Ltd., priority 1982, dated 1986)

Experiments:
[1] = system: collagen-induced aggregation in rabbit platelets; test: Inhibition of collagen-induced platelet aggregation in rabbit platelet rich plasma; type: cell-based; details: Oryctolagus cuniculus, read-out: Inhibition rate of collagen-induced aggregation; for inhibition at 100 µM (stock): Concentration of the test compound solution 10^-4 mole; for inhibition at 10 µM (stock): Concentration of the test compound solution 10^-5 mole
Procedure: (§1) The platelet aggregation inhibitory effect was measured by using a Platelet Aggregation Tracer Model PAT-6M (manufactured by Nikoh Bio-Science Co., Ltd.) by a method according to Kimura, et al., [IGAKU-NO-AYUMI (Progress in Medicine), Vol. 114, No. 9, pp. 718-727, Aug. 30, 1980, and Nature, pp. 927-929, 1962].
(§2) The blood sample used for the test was a 1:9 (by volume) mixture of "3.8%-CITRATE"® (a registered trademark for 3.8%-sodium citrate, manufactured by Green Cross Corp.) and whole blood collected from rabbits. Said sample was subjected to 10-minute centrifugal separation at 1,000 r.p.m. (200xG) to obtain a platelet rich plasma (PRP). The PRP thus obtained was separated, and the remaining blood sample was further subjected to 15-minute centrifugal separation at 3,000 r.p.m. (2,000xG) to obtain a platelet poor plasma (PPP).
(§3) The number of platelets in the PRP was counted by the Brecher-Clonkite Method, and the PRP was diluted with the PPP to prepare a PRP sample with a platelet concentration of 600,000/microliter to prepare for an adenosine diphosphate (ADP)-induced aggregation test, and a collagen-induced aggregation test. 0.2 Milliliter of the PRP sample was added to 2 microliters of a solution of a test compound of predetermined concentration and this mixture was placed in a 37° C. thermostat for one minute. Then 20 microliters of an ADP or collagen solution was added to the mixture. In this test, the ADP solution was prepared by adjustment to a concentration of 7.5×10^-5 M by using Auren-Beronal buffer solution (pH 7.35). Further, the collagen solution was prepared by adjustment to a concentration of 200 micrograms/ml by using collagen reagent of "Holm"® (manufactured by Hormon-Chemie Munchen, GmbH.) which was diluted wih a physiological saline solution.
(§4) The transmittance of the resultant test mixture was determined and the change of transmittance was recorded by using the aggregometer at a stirrer speed of 1,100 r.p.m.
(§5) The platelet aggregation inhibitory effect of the test compound was measured in terms of inhibition rate (%) with respect to the aggregation rate of the controls. The aggregation rate was calculated from the following formula.
(§6) Aggregation rate=[(c-a)/(b-a)]×100
(§7) The percent inhibition is calculated from the following formula.
(§8) Inhibition rate (%)=[(A-B)/A]×100
(§9) The inhibitory effect of the test compounds on collagen-induced aggregation in rabbit platelets is shown in Table 1, similarly such effect on ADP-induced aggregation in rabbit platelets is shown in Table 2.

[2] = system: ADP-induced aggregation in rabbit platelets; test: Inhibition of ADP-induced platelet aggregation in rabbit platelet rich plasma; type: cell-based; details: Oryctolagus cuniculus, read-out: Inhibition rate of ADP-induced aggregation; for inhibition at 100 µM (stock): Concentration of the test compound solution 10^-4 mole; for inhibition at 10 µM (stock): Concentration of the test compound solution 10^-5 mole
Procedure: as §1, §2, §3, §4, §5, §6, §7, §8, §9

coronary artery = test: Increased amount of the blood flow in coronary artery, intravenous administration, anesthetized dog; type: in vivo
Procedure: (§10) The change of blood flow in coronary artery and the change of blood pressure were measured by a method according to Yakura et al., [Japan Journal of Pharmacology, Vol. 57, pages 380-391 (1961)] and according to Taira, et al. [Clin. Exp. Pharmacol. Physiol., Vol. 6, pages 301-316, (1976)].
(§11) An adult bastard dog of either sex weighing 8-13 kg was anesthetized with sodium pentobarbital at the rate of 30 mg/kg by intraveneous administration, then the dog was fixed in supination and was theracotomized under a condition of forced breathing. After another intraveneous administration of sodium heparin at the rate of 500 U/kg, 100 U/kg per hour, the dog was subjected to the following experiments.
(§12) (2) Intraveneous administration
(§13) Morawitz's cannula was cannulated to the coronary sinus venosus through the auricula dextra cordis, and the blood in vein was circulated to the right carotid. The blood flow was measured by an electromagnetic blood flow meter equipped with a blood flow observation probe in the extracorporeal circulation path of the vein. The systolic force was measured by a systolometer (pick-up) placed at the left ventricle of heart, the blood pressure was measured from the femoral artery, and the heart rate was measured from the pulse. A compound to be tested was administered through the cannula being cannulated in femoral vein. The increased amount of the blood flow in coronary artery after the administration of the test compound is shown in Table 4, also the change of blood pressure is shown in Table 5.

[3] = Change of blood pressure, intravenous administration, anesthetized dog; type: in vivo; design: unit not given here; details: femoral artery
Procedure: as §10, §11, §12, §13

Row | SMILES | inhibition at 100 µM (stock) [1] | inhibition at 10 µM (stock) [1] | inhibition at 100 µM (stock) [2] | inhibition at 10 µM (stock) [2] | Increased amount of the blood flow in coronary artery (coronary artery; 3 micrograms/kg) | Increased amount of the blood flow in coronary artery (coronary artery; 10 micrograms/kg) | Increased amount of the blood flow in coronary artery (coronary artery; 30 micrograms/kg) | Increased amount of the blood flow in coronary artery (coronary artery; 100 micrograms/kg) | Increased amount of the blood flow in coronary artery (coronary artery; 300 micrograms/kg) | Change of blood pressure ([3]; 3 micrograms/kg) | Change of blood pressure ([3]; 10 micrograms/kg) | Change of blood pressure ([3]; 30 micrograms/kg) | Change of blood pressure ([3]; 100 micrograms/kg) | Change of blood pressure ([3]; 300 micrograms/kg) | Increased amount of the blood flow in coronary artery (coronary artery; 1000 micrograms/kg)
1 | C=CCOc1ccc(OCCCOC(=O)C2=C(C)NC(C)=C(C(=O)OC)C2c2cccc([N+](=O)[O-])c2)c2c1NC(=O)CC2 (stereo not shown) [Compound 1, 5-{3-[2,6-Dimethyl-5-methoxycarbonyl-4-(3-nitrophenyl)-1,4-dihydropyridin-3-carboxy]-propoxy}-8-propenyloxy-3,4-dihydrocarbostyril] | 51% | 15% | 19% | 1% | 4 mL/min | 34 mL/min | 63 mL/min | 62 mL/min | 42 mL/min | -6 | -17 | -36 | -42 | -46 | –
2 | COC(=O)C1=C(C)NC(C)=C(C(=O)OCCOc2cccc3c2CCC(=O)N3)C1c1cccc([N+](=O)[O-])c1 (stereo not shown) [Compound 2, 5-{2-[2,6-Dimethyl-5-methoxycarbonyl-4-(3-nitrophenyl)-1,4-dihydropyridin-3-carboxy]-ethoxy}-3,4-dihydrocarbostyril] | 79% | 17% | 28% | 1% | – | 3 mL/min | 13 mL/min | 38 mL/min | 52 mL/min | – | -2 | -6 | -21 | -34 | –
3 | COC(=O)C1=C(C)NC(C)=C(C(=O)OCCOc2ccc3c(c2)CCC(=O)N3)C1c1cccc([N+](=O)[O-])c1 (stereo not shown) [Compound 3, 6-{2-[2,6-Dimethyl-5-methoxycarbonyl-4-(3-nitrophenyl)-1,4-dihydropyridin-3-carboxy]-ethoxy}-3,4-dihydrocarbostyril] | 100% | 97% | 100% | 27% | 2 mL/min | 1 mL/min | 3 mL/min | 14 mL/min | 38 mL/min | – | -1 | -4 | -18 | -34 | –
4 | COC(=O)C1=C(C)NC(C)=C(C(=O)OCCCOc2cccc3c2CCC(=O)N3)C1c1cccc([N+](=O)[O-])c1 (stereo not shown) [Compound 4, 5-{3-[2,6-Dimethyl-5-methoxycarbonyl-4-(3-nitrophenyl)-1,4-dihydropyridin-3-carboxy]-propoxy}-3,4-dihydrocarbostyril] | 23% | 11% | 16% | 4% | 3 mL/min | 8 mL/min | 22 mL/min | 62 mL/min | 90 mL/min | -5 | -15 | -25 | -34 | -51 | –
5 | COC(=O)C1=C(C)NC(C)=C(C(=O)OCCCOc2ccc3c(c2)CCC(=O)N3)C1c1cccc([N+](=O)[O-])c1 (stereo not shown) [Compound 5, 6-{3-[2,6-Dimethyl-5-methoxycarbonyl-4-(3-nitrophenyl)-1,4-dihydropyridin-3-carboxy]-propoxy}-3,4-dihydrocarbostyril] | 38% | 12% | 20% | 4% | 3 mL/min | 12 mL/min | 47 mL/min | 89 mL/min | 77 mL/min | – | – | – | – | – | –
6 | COC(=O)C1=C(C)NC(C)=C(C(=O)OCCN(C(=O)CCCOc2cccc3[nH]c(=O)ccc23)C2CCCCC2)C1c1cccc([N+](=O)[O-])c1 (stereo not shown) [Compound 33, N--{2-[1,4-Dihydro-2,6-dimethyl-5-methoxycarbonyl-4-(3-nitrophenyl)pyridin-3-carboxy]ethyl}-N--cyclohexyl-4-(5-carbostyriloxy)butyramide] | 100% | 34% | 98% | 25% | – | – | – | 1 mL/min | 4 mL/min | – | – | – | – | – | 48 mL/min
7 | COC(=O)C1=C(C)NC(C)=C(C(=O)OCCN(C(=O)CCCOc2ccc3[nH]c(=O)ccc3c2)C2CCCCC2)C1c1ccccc1[N+](=O)[O-] (stereo not shown) [Compound 34, N--{2-[1,4-Dihydro-2,6-dimethyl-5-methoxycarbonyl-4-(2-nitrophenyl)pyridin-3-carboxy]ethyl}-N--cyclohexyl-4-(6-carbostyriloxy)butyramide] | 100% | 100% | 94% | 98% | – | – | – | 22 mL/min | 47 mL/min | – | – | – | – | – | 54 mL/min
8 | CCN(CCOC(=O)C1=C(C)NC(C)=C(C(=O)OC)C1c1ccccc1)C(=O)CCCOc1ccc2[nH]c(=O)ccc2c1 (stereo not shown) [Compound 36, N--[2,(1,4-Dihydro-2,6-dimethyl-5-methoxycarbonyl-4-phenylpyridin-3-carboxy)ethyl]-N--ethyl-4-(6-carbostyriloxy)butyramide] | 100% | 100% | 98% | 55% | – | – | – | 4 mL/min | 12 mL/min | – | – | – | – | – | 38 mL/min
9 | COC(=O)C1=C(C)NC(C)=C(C(=O)OCCCOc2ccc3[nH]c(=O)ccc3c2)C1c1ccccc1 (stereo not shown) [Compound 44, 6-[3-(2,6-Dimethyl-5-methoxycarbonyl-4-phenyl-1,4-dihydropyridin-3-carboxy)propoxy]-carbostyril] | 100% | 25% | 100% | 20% | – | – | – | – | – | – | -1 | -3 | -6 | -52 | –
